≈ marks a conversion by molar mass, not a printed value.
Assays:
Type in all cases: functional
[1] = test system: Staphylococcus aureus; experiment: Antibacterial activity against Staphylococcus aureus ATCC 25923 after 18 hrs by agar dilution method; details: for MIC: Staphylococcus aureus, ATCC 25923, 18 h
[2] = test system: Enterococcus; experiment: Antibacterial activity against vancomycin-sensitive Enterococcus after 18 hrs by agar dilution method
[3] = test system: Staphylococcus; experiment: Antibacterial activity against methicillin-resistant coagulase-negative Staphylococcus clinical isolate after 18 hrs by agar dilution method
[4] = test system: Escherichia coli; experiment: Antibacterial activity against Escherichia coli ATCC 25922 after 18 hrs by agar dilution method; details: ATCC 25922, 18 h
[5] = test system: Staphylococcus aureus; experiment: Antibacterial activity against Staphylococcus aureus ATCC 25923 after 18 hrs by agar dilution method in presence of 50% human plasma; details: ATCC 25923, Plasma
[6] = test system: Streptococcus pneumoniae; experiment: Antibacterial activity against penicillin-resistant Streptococcus pneumoniae after 18 hrs by agar dilution method
[7] = test system: Staphylococcus aureus; experiment: Antibacterial activity against methicillin-susceptible Staphylococcus aureus clinical isolate after 18 hrs by agar dilution method
[8] = test system: Enterococcus; experiment: Antibacterial activity against vancomycin-resistant Enterococcus after 18 hrs by agar dilution method
[9] = test system: Staphylococcus aureus; experiment: Antibacterial activity against methicillin-resistant Staphylococcus aureus clinical isolate after 18 hrs by agar dilution method; details: for MIC: Staphylococcus aureus, 18 h
[10] = test system: Staphylococcus; experiment: Antibacterial activity against methicillin-susceptible coagulase-negative Staphylococcus clinical isolate after 18 hrs by agar dilution method
[11] = test system: Moraxella catarrhalis; experiment: Antibacterial activity against Moraxella catarrhalis clinical isolate after 18 hrs by agar dilution method
[12] = test system: Haemophilus influenzae; experiment: Antibacterial activity against Haemophilus influenzae clinical isolate after 18 hrs by agar dilution method

| SMILES | MIC [1] | MIC [2] | MIC [3] | MIC [4] | MIC [5] | MIC [6] | MIC [7] | MIC [8] | MIC [9] | MIC [10] | MIC [11] | MIC [12] | -logMIC [1] | -logMIC [9] |
| --- | --- | --- | --- | --- | --- | --- | --- | --- | --- | --- | --- | --- | --- | --- |
| O=C1O[C@@H](Cn2ccnn2)CN1c1ccc(N2CCOCC2)c(F)c1 | 1 µg/mL (≈ 2.88 µM) | 0.5 µg/mL (≈ 1.44 µM) | 0.5 µg/mL (≈ 1.44 µM) | ≥ 8 µg/mL | 1 µg/mL | 0.5 µg/mL (≈ 1.44 µM) | 0.5 µg/mL (≈ 1.44 µM) | 1 µg/mL (≈ 2.88 µM) | 0.5 µg/mL (≈ 1.44 µM) | 0.5 µg/mL (≈ 1.44 µM) | ≥ 8 µg/mL | ≥ 8 µg/mL |  |  |
| CCCCCCCCCCC(=O)N1CCN(c2ccc(N3C[C@H](Cn4ccnn4)OC3=O)cc2F)CC1 | > 16 µg/mL | > 16 µg/mL |  | ≥ 8 µg/mL | > 16 µg/mL | > 16 µg/mL | > 16 µg/mL |  |  | > 16 µg/mL | ≥ 8 µg/mL | ≥ 8 µg/mL | 1.51 |  |
| O=C(CC1CC2CCC1C2)N1CCN(c2ccc(N3C[C@H](Cn4ccnn4)OC3=O)cc2F)CC1 (stereo not given in full) | 4 µg/mL (≈ 8.29 µM) | 2 µg/mL (≈ 4.14 µM) | 2 µg/mL (≈ 4.14 µM) | ≥ 8 µg/mL | > 16 µg/mL | 4 µg/mL (≈ 8.29 µM) | 2 µg/mL (≈ 4.14 µM) | 4 µg/mL (≈ 8.29 µM) | 2 µg/mL (≈ 4.14 µM) | 2 µg/mL (≈ 4.14 µM) | ≥ 8 µg/mL | ≥ 8 µg/mL | 2.08 | 2.38 |
| CCC(=O)N1CCN(c2ccc(N3C[C@H](Cn4ccnn4)OC3=O)cc2F)CC1 | 1 µg/mL (≈ 2.48 µM) | 0.5 µg/mL (≈ 1.24 µM) | 1 µg/mL (≈ 2.48 µM) | ≥ 8 µg/mL | 1 µg/mL | 1 µg/mL (≈ 2.48 µM) | 1 µg/mL (≈ 2.48 µM) | 1 µg/mL (≈ 2.48 µM) | 1 µg/mL (≈ 2.48 µM) | 0.12 µg/mL (≈ 0.298 µM) | ≥ 8 µg/mL | ≥ 8 µg/mL | 2.6 | 2.6 |
| CC(=O)N1CCN(c2ccc(N3C[C@H](Cn4ccnn4)OC3=O)cc2F)CC1 | 1 µg/mL (≈ 2.57 µM) | 0.5 µg/mL (≈ 1.29 µM) | 0.25 µg/mL (≈ 0.644 µM) | ≥ 8 µg/mL | 1 µg/mL | 0.5 µg/mL (≈ 1.29 µM) | 0.5 µg/mL (≈ 1.29 µM) | 0.25 µg/mL (≈ 0.644 µM) | 0.25 µg/mL (≈ 0.644 µM) | 0.25 µg/mL (≈ 0.644 µM) | ≥ 8 µg/mL | ≥ 8 µg/mL | 2.59 | 3.19 |
| CCCCCCCC(=O)N1CCN(c2ccc(N3C[C@H](Cn4ccnn4)OC3=O)cc2F)CC1 | 8 µg/mL (≈ 16.9 µM) | 4 µg/mL (≈ 8.46 µM) | 2 µg/mL (≈ 4.23 µM) | ≥ 8 µg/mL | > 16 µg/mL | > 16 µg/mL | 4 µg/mL (≈ 8.46 µM) | 4 µg/mL (≈ 8.46 µM) | 2 µg/mL (≈ 4.23 µM) | 2 µg/mL (≈ 4.23 µM) | ≥ 8 µg/mL | ≥ 8 µg/mL | 2.07 | 2.37 |
| CCCCCCC(=O)N1CCN(c2ccc(N3C[C@H](Cn4ccnn4)OC3=O)cc2F)CC1 | 4 µg/mL (≈ 8.72 µM) | 4 µg/mL (≈ 8.72 µM) | 2 µg/mL (≈ 4.36 µM) | ≥ 8 µg/mL | > 16 µg/mL | 4 µg/mL (≈ 8.72 µM) | 2 µg/mL (≈ 4.36 µM) | 4 µg/mL (≈ 8.72 µM) | 2 µg/mL (≈ 4.36 µM) | 1 µg/mL (≈ 2.18 µM) | ≥ 8 µg/mL | ≥ 8 µg/mL | 2.06 | 2.36 |
| CC(C)C(=O)N1CCN(c2ccc(N3C[C@H](Cn4ccnn4)OC3=O)cc2F)CC1 | 2 µg/mL (≈ 4.8 µM) | 1 µg/mL (≈ 2.4 µM) | 1 µg/mL (≈ 2.4 µM) | ≥ 8 µg/mL | 2 µg/mL | 0.5 µg/mL (≈ 1.2 µM) | 1 µg/mL (≈ 2.4 µM) | 1 µg/mL (≈ 2.4 µM) | 1 µg/mL (≈ 2.4 µM) | 1 µg/mL (≈ 2.4 µM) | ≥ 8 µg/mL | ≥ 8 µg/mL | 2.32 | 2.62 |
| O=C(C1CCCCC1)N1CCN(c2ccc(N3C[C@H](Cn4ccnn4)OC3=O)cc2F)CC1 | 4 µg/mL (≈ 8.76 µM) | 1 µg/mL (≈ 2.19 µM) | 1 µg/mL (≈ 2.19 µM) | ≥ 8 µg/mL | 4 µg/mL | 0.5 µg/mL (≈ 1.1 µM) | 1 µg/mL (≈ 2.19 µM) | 1 µg/mL (≈ 2.19 µM) | 1 µg/mL (≈ 2.19 µM) | 1 µg/mL (≈ 2.19 µM) | ≥ 8 µg/mL | ≥ 8 µg/mL | 2.06 | 2.66 |

— ChEMBL document CHEMBL1141677, “Synthesis and structure-antibacterial activity of triazolyl oxazolidinones containing long chain acyl moiety” (2008)
